{"source": "patent US11596623B2", "about": "“Methods for treating virus infection or proliferation” (HOWARD UNIVERSITY, priority 2018, dated 2023)", "key": {"[1]": {"biological_target": "T1, RACK1A Y248 phosphorylation (Arabidopsis thaliana, UniProt O24456)", "T1 construct": "from tissue; host or cells: Arabidopsis seedlings or plants (wild type); lysates", "T1 sequence (O24456 whole entry)": "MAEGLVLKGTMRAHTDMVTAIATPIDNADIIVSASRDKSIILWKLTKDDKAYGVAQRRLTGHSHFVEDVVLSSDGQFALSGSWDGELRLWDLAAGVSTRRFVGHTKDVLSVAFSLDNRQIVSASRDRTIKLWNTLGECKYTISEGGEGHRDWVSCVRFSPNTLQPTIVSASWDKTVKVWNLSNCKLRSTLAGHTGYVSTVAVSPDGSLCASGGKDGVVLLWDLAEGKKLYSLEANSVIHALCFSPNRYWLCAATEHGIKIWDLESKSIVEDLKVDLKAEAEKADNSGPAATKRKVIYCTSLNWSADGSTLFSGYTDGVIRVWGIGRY", "assay": "ABA-induced RACK1A Y248 phosphorylation in seedlings, western blot", "assay_type": "in vivo", "details": "10 μM ABA, 12 hours, one-week old seedlings", "method": "One-week old Arabidopsis seedlings were treated with 10 μM of stress hormone Abscisic acid (ABA) in the presence/absence of the inhibitor compounds for 12 hours in a growth chamber (overnight) at 22° C. Lysates were probed with an antibody raised to detect phosphorylated Y248 residue of RACK1A protein in Arabidopsis. Lysates from rack1a-1 knock-out mutant seedlings grown and treated similarly as the wild-type seedlings were used as a negative control. The compounds were dissolved in DMSO (D) and ABA was dissolved in methanol (M).\nProteins were separated by SDS-PAGE (25 μg loaded in each lane), transferred to nitrocellulose membranes (Amersham Inc., Piscataway, N.J., USA), and blocked with 5% nonfat milk for 60 min at room temperature. Membranes were incubated overnight at 4° C. with primary antibody, followed by incubation with a horseradish peroxidase-coupled secondary antibody and detection with enhanced chemiluminescence (Pierce, Rockford, Ill., USA), according to standard methods. Membranes were stripped with stripping buffer (100 mM 2-mercaptoethanol, 2% SDS, 62.5 mM Tris-HCl, pH 6.8), washed with PBS-0.1% Tween-20, and used to detect additional proteins. For Arabidopsis lysates one-week old seedlings were treated with 10 uM of ABA in the presence/absence of the inhibitor compounds for 12 hours in a growth chamber (overnight) at 22° C. mostly in the dark. […]"}, "RACK1": {"biological_target": "T2, RACK1 (Homo sapiens, UniProt P63244)", "T2 construct": "endogenous in cells; host or cells: HEp-2 cells (human laryngeal carcinoma line), virus-infected", "assay": "RACK1 protein western blot in HSV-1 infected HEp-2 cells", "assay_type": "cell-based", "details": "pre-treated 24 hours at 100 μM; 24 h after HSV-1 infection", "method": "The virus used in this diagram is an HSV-1 F strain expressing luciferase (R8411 mutant) under the control of the ICP27 promoter and was a gift from Prof. Bernard Roizman (University of Chicago). HEp-2 cells were grown to 80-90% confluency in Dulbecco's Modified Eagle's medium (DMEM) supplemented with 10% fetal calf serum (PCS) and 1% penicillin-streptomycin (PS) and fungicide. The HSV-1 virus and the indicated concentration of compound(s) were added and incubated for 24 h (A of FIG. 13 and B of FIG. 13) and for 48 h in panel C samples. The luciferase signals were imaged and quantified in a Perkin Elmer IVIS Spectrum Imaging system. […] Three replicates from two separate experiments were combined to generate the average and the standard error bar. […] The compound(s) inhibit Y248 phosphorylation of RACK1 protein.\nProteins were separated by SDS-PAGE (25 μg loaded in each lane), transferred to nitrocellulose membranes (Amersham Inc., Piscataway, N.J., USA), and blocked with 5% nonfat milk for 60 min at room temperature. Membranes were incubated overnight at 4° C. with primary antibody, followed by incubation with a horseradish peroxidase-coupled secondary antibody and detection with enhanced chemiluminescence (Pierce, Rockford, Ill., USA), according to standard methods. […]"}}}
{"smiles": "Nn1c(S)nnc1-c1cc(Cl)cc(Cl)c1", "note": "[SD29-14]", "values": [{"measurement": "ABA-induced RACK1A Y248 phosphorylation", "setting": "[1]", "value": "prevented the ABA-induced Y248 phosphorylation"}]}
{"smiles": "Nn1c(S)nnc1-c1ccc(F)cc1", "note": "[SD-29]", "values": [{"measurement": "production of RACK1", "setting": "RACK1", "value": "reduced the production of RACK1"}, {"measurement": "ABA-induced RACK1A Y248 phosphorylation", "setting": "[1]", "value": "prevented the ABA-induced Y248 phosphorylation"}]}
